Data reported in patent US8080523B2 (The Regents of the University of California, priority 2004, dated 2011).
Positions of bridges follow the written chain, without caps; N, C: chain ends. Residues, ends and D or L forms follow the SMILES beside them.

What was measured:
Format in all cases: cell-based
Kv1.1 = molecular target: T1, Kv1.1 (Mus musculus, UniProt P16388); assay: Patch-clamp block of Kv1.1 channels stably expressed in L929 cells
T1 construct: expressed in transfected cells
Experimental: (§1) Kds were determined from the dose-response curves shown using Microcal Origin software.

Kv1.2 [1] = assay: Ion channel specificity panel: Kv1.2
From the text: (§2) Margatoxin, a peptide from scorpion venom that has been touted as a specific Kv1.3 inhibitor (Koo et al., 1997; Lin et al., 1993; Middleton et al., 2003) was also not specific.

Kv1.5 = Kv1.5 (Homo sapiens, UniProt P22460); assay: Ion channel specificity panel: Kv1.5
Chain of Kv1.5 (P22460 whole entry): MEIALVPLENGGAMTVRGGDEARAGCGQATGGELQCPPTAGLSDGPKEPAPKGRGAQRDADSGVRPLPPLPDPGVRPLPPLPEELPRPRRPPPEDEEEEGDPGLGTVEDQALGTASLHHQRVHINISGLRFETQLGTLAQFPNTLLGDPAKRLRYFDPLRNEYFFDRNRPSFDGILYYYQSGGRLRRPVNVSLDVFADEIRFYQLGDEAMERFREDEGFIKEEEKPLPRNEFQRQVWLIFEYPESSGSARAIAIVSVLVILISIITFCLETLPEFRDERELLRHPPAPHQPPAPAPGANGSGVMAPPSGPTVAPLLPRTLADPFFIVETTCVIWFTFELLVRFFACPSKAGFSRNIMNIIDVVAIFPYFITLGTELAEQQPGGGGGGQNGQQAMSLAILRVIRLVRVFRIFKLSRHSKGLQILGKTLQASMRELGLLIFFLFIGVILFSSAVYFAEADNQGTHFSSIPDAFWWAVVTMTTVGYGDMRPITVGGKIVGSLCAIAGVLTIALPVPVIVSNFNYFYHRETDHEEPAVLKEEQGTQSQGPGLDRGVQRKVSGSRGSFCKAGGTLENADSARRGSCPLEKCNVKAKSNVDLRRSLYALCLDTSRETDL
From the text: as §2

Kv1.6 = Kv1.6 (Homo sapiens, UniProt P17658); assay: Ion channel specificity panel: Kv1.6
Chain of Kv1.6 (P17658 whole entry): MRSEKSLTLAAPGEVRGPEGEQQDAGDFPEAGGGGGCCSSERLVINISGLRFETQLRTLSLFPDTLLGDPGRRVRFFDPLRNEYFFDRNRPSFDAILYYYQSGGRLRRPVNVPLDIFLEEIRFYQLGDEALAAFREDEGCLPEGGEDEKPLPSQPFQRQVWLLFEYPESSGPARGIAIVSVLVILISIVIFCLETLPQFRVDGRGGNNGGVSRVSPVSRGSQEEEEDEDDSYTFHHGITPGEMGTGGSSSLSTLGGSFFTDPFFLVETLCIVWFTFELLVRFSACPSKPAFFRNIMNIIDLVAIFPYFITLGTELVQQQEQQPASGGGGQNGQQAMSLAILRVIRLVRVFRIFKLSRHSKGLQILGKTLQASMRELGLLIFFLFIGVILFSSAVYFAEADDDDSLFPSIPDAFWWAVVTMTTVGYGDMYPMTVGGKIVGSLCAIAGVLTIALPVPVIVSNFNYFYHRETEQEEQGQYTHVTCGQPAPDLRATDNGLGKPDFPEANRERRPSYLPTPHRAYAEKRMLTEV
From the text: as §2

Kv1.2 [2] = molecular target: Kv1.2 (UniProt P63142); assay: Ion channel specificity panel: Kv1.2; settings: read-out: Kd on Kv1.2
From the text: as §2

Kv1.3 = molecular target: T2, Kv1.3 (Mus musculus, UniProt P16390); assay: Patch-clamp block of Kv1.3 channels stably expressed in L929 cells; settings: cloned channel, dose-response curves
T2 construct: expressed in transfected cells
T2 sequence (P16390 whole entry): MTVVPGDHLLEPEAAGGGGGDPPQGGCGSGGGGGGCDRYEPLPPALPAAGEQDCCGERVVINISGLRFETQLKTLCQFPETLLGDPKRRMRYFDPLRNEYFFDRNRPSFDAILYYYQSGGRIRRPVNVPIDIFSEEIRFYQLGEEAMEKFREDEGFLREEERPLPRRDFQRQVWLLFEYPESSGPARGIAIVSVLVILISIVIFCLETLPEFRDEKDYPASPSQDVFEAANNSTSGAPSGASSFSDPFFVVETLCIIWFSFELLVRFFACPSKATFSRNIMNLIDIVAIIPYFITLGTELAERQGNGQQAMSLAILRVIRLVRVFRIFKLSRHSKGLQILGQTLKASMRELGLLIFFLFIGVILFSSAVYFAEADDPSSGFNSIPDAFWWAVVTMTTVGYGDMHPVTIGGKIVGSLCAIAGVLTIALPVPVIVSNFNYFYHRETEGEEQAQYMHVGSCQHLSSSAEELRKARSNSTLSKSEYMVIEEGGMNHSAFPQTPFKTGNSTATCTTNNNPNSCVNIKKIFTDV
Experimental: as §1

Kv3.2 = assay: Ion channel specificity panel: Kv3.2
From the text: as §2

T1 sequence (P16388 whole entry): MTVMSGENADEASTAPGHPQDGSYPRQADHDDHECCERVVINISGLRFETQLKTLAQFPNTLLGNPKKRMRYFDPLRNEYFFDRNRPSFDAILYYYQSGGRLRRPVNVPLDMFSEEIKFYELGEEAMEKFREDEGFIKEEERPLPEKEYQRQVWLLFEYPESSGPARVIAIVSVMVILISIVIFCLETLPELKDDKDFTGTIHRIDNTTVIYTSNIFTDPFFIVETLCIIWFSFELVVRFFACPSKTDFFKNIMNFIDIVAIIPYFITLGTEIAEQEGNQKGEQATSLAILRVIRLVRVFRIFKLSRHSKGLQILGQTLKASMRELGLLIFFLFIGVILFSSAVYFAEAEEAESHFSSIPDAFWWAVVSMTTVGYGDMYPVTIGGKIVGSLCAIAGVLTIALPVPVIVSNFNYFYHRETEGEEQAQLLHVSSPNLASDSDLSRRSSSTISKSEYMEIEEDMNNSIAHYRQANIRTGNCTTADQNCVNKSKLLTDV

Structure (SMILES)	selectivity for Kv1.3 over Kv1.1 (Kv1.1)	selectivity for Kv1.3 over Kv1.2 (Kv1.2 [1])	selectivity for Kv1.3 over Kv1.5 (Kv1.5)	Kd (Kv1.6)	selectivity for Kv1.3 over Kv1.6 (Kv1.6)	Kd (Kv1.1)	Kd (Kv1.2 [2])	Kd (Kv1.3)	Kd (Kv3.2)	selectivity for Kv1.3 over Kv3.2 (Kv3.2)
O=c1cc(-c2ccc(O)c(O)c2)oc2cc(O)cc(O)c12 [Luteolin]	no selectivity	no selectivity	no selectivity	–	–	–	–	–	–	–
CC[C@H](C)[C@H](NC(=O)[C@@H](N)[C@@H](C)O)C(=O)N[C@H](C(=O)N[C@@H](CC(N)=O)C(=O)N[C@H](C(=O)N[C@@H](CCCCN)C(=O)N[C@H]1CSSC[C@@H]2NC(=O)[C@H](CCCCN)NC(=O)[C@H](C)NC(=O)CNC(=O)[C@H](C)NC(=O)[C@H](CO)NC(=O)[C@H](CCC(N)=O)NC(=O)CNC(=O)[C@H](Cc3ccccc3)NC(=O)[C@H](CCC(N)=O)NC(=O)[C@H](C)NC(=O)[C@H](CCCCN)NC(=O)[C@@H]3CSSC[C@@H](C(=O)N[C@@H](Cc4ccc(O)cc4)C(=O)N4CCC[C@H]4C(=O)N[C@@H](Cc4c[nH]cn4)C(=O)O)NC(=O)[C@H](CCCCN)NC(=O)[C@H](CSSC[C@H](NC(=O)[C@H](CCC(N)=O)NC(=O)[C@H](CCCCN)NC(=O)[C@@H]4CCCN4C(=O)[C@H](CO)NC(=O)[C@H]([C@@H](C)O)NC1=O)C(=O)N[C@@H](CC(C)C)C(=O)N1CCC[C@H]1C(=O)N1CCC[C@H]1C(=O)N3)NC(=O)[C@H](CCCCN)NC(=O)CNC(=O)[C@H](CC(N)=O)NC(=O)[C@H](CCSC)NC2=O)C(C)C)[C@@H](C)CC [Margatoxin] (H-TIINVKCTSPKQCLPPCKAQFGQSAGAKCMNGKCKCYPH-OH; disulfide 7-29, 13-34, 17-36; N-terminus and C-terminus assumed)	9 fold	5 fold	–	> 100 nM	> 1000 fold	10 ± 1 nM	0.52 ± 0.001 nM	0.11 ± 0.012 nM	> 100 nM	> 1000 fold
